Laboratory results reported in patent US8377974B2 (Millennium Pharmaceuticals, Inc., priority 2004, dated 2013).

Molecular target: T1, human plasma protein factor Xa (Homo sapiens, UniProt P00742)
T1 construct: measure proteolytic activity of the enzyme (factor Xa); purchased Haematologic Technologies (Essex Junction, Vt.); host or cells: human plasma
Assay: Factor Xa IC50 determination: cleavage of paranitroanilide substrate S-2765 in 96-well plates
Type: biochemical
Details: fXa 1 nM, S-2765 100 μM, Tris buffered saline pH 7.4, room temperature
From the text: This example illustrates methods for evaluating the compounds of the invention, along with results obtained for such assays. The in vitro and in vivo Factor Xa isoform activities of the inventive compounds can be determined by various procedures known in the art, such as a test for their ability to inhibit the activity of the Factor Xa isoform. […] The IC50 value is the concentration (in nM) of the compound required to provide 50% inhibition of Factor Xa isoform.
An in vitro assay for detecting and measuring inhibition activity against Factor Xa is as follows:
The substrate S-2765 (Z-D-Arg-Gly-Arg-pNA.HCl) was obtained from Diapharma (West Chester, Ohio).
The human plasma protein factor Xa was purchased from Haematologic Technologies (Essex Junction, Vt.).
All assays, which are performed in 96-well microtiter plates, measure proteolytic activity of the enzyme (factor Xa) by following cleavage of paranitroanilide substrate. The assay buffer used for proteolytic assays was Tris buffered saline (20 mM Tris, 150 mM NaCl, 5 mM CaCl2, 0.1% Bovine serum albumin (BSA), 5% Dimethly Sulfoxide (DMSO) pH 7.4). In a 96-well microtiter plate, inhibitor was serially diluted to give a range of concentrations from 0.01 nM to 10 μM (final). Duplicate sets of wells were assayed and control wells without inhibitor were included. Enzyme was added to each well, (fXa concentration=1 nM), the plate was shaken for 5 seconds and then incubated for 5 minutes at room temperature. S2765 was added (100 μM final) and the plate was shaken for 5 seconds (final liquid volume in each well was 200 μl). The degree of substrate hydrolysis was measured at 405 nm on a Thermomax plate reader (Molecular Devices, Sunnyvale, Calif.) for 2 minutes. The initial velocities (mOD/min), for each range of inhibitor concentrations, were fitted to a four parameter equation using Softmax data analysis software. The parameter C, derived from the resulting curve-fit, corresponded to the concentration for half maximal inhibition (IC50).

T1 sequence (P00742 235-488 limits assumed): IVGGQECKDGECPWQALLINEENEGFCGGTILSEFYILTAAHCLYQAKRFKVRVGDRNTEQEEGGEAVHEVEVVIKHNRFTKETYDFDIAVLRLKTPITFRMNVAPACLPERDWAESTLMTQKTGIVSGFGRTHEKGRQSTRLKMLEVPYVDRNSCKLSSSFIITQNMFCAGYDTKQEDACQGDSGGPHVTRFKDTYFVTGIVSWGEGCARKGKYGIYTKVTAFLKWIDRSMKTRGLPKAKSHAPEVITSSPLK
T1 sequence (P00742 41-179 partner limits assumed): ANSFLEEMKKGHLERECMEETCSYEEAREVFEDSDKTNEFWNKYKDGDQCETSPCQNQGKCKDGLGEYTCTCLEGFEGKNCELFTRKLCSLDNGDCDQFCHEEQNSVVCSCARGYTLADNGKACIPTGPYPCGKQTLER

Structure (SMILES)	IC50
COC(=O)c1ccc(Nc2ccc(C3=NOC(CNC(=O)c4ccc(Cl)s4)C3)cc2)cc1 (stereo not drawn) [Example 262, 4-[4-(5-{[(5-Chloro-thiophene-2-carbonyl)-amino]-methyl}-4,5-dihydro-isoxazol-3-yl)-phenylamino]-benzoic acid methyl ester]	≥ 500 nM
CCOC(=O)C1CCN(C(=N)c2ccc(-c3cc(CN(C)C(=O)c4ccc(Cl)s4)on3)cc2)CC1 [Example 39, 1-{[4-(5-{[(5-Chloro-thiophene-2-carbonyl)-methyl-amino]-methyl}-isoxazol-3-yl)-phenyl]-imino-methyl}-piperidine-4-carboxylic acid ethyl ester]	≥ 500 nM
CCCN(C)C(=N)c1ccc(-c2nc(CNC(=O)c3ccc(Cl)s3)co2)cc1 [Example 344, N-((2-(4-(N-Methyl-N-propylcarbamimidoyl)phenyl)oxazol-4-yl)methyl)-5-chlorothiophene-2-carboxamide]	100 to 500 nM
O=C(NCc1cn(-c2ccc(I)cc2F)nn1)c1ccc(Cl)s1 [Example 304, 5-Chloro-N-((1-(2-fluoro-4-iodophenyl)-1H-1,2,3-triazol-4-yl)methyl)thiophene-2-carboxamide]	≥ 500 nM
Nc1ccccc1-c1ccc(C2=NOC(CNC(=O)c3ccc(Cl)s3)C2)cc1 (stereo not drawn) [Example 186, 5-Chloro-thiophene-2-carboxylic acid [3-(2′-amino-biphenyl-4-yl)-4,5-dihydro-isoxazol-5-ylmethyl]-amide]	100 to 500 nM
CCN1CCC(C2=NOC(CNC(=O)c3ccc(Cl)s3)C2)CC1 (stereo not drawn) [Example 169, 5-Chloro-thiophene-2-carboxylic acid [3-(1-ethyl-piperidin-4-yl)-4,5-dihydro-isoxazol-5-ylmethyl]-amide]	≥ 500 nM
O=C(NCc1cc(-c2ccc(-c3cccc(CN4CCCC4)c3)cc2)no1)c1ccc(Cl)s1 [Example 212, 5-Chloro-thiophene-2-carboxylic acid [3-(3′-pyrrolidin-1-ylmethyl-biphenyl-4-yl)-isoxazol-5-ylmethyl]-amide]	≥ 500 nM
COc1ccc(CN(C)C)c(-c2ccc(C3=NOC(CNC(=O)c4ccc(Cl)s4)C3)cc2)c1 (stereo not drawn) [Example 202, 5-Chloro-thiophene-2-carboxylic acid [3-(2′-dimethylaminomethyl-5′-methoxy-biphenyl-4-yl)-4,5-dihydro-isoxazol-5-ylmethyl]-amide]	≥ 500 nM
CC(C)N1CCC(C2=NOC(CNC(=O)c3ccc(Cl)s3)C2)CC1 (stereo not drawn) [Example 171, 5-Chloro-thiophene-2-carboxylic acid [3-(1-isopropyl-piperidin-4-yl)-4,5-dihydro-isoxazol-5-ylmethyl]-amide]	≥ 500 nM
O=C(NCC1CC(c2ccc(N3CCOCC3)cc2)=NO1)c1ccc(Cl)s1 (stereo not drawn) [Example 234, 5-Chloro-thiophene-2-carboxylic acid [3-(4-morpholin-4-yl-phenyl)-4,5-dihydro-isoxazol-5-ylmethyl]-amide]	≥ 500 nM
COc1ccc(C2=NOC(CNC(=O)c3ccc(Cl)s3)C2)cc1 (stereo not drawn) [Example 150, 5-Chloro-thiophene-2-carboxylic acid [3-(4-methoxy-phenyl)-4,5-dihydro-isoxazol-5-ylmethyl]-amide]	≥ 500 nM
O=C(NCC1CC(c2ccc(Nc3ccc4ncccc4c3)cc2)=NO1)c1ccc(Cl)s1 (stereo not drawn) [Example 396, 5-Chloro-N-((3-(4-(quinolin-6-ylamino)phenyl)-4,5-dihydroisoxazol-5-yl)methyl)thiophene-2-carboxamide]	≥ 500 nM
COCCN(C)C(=N)c1ccc(-c2nc(CNC(=O)c3ccc(Cl)s3)co2)cc1 [Example 346, N-((2-(4-(N-(2-Methoxyethyl)-N-methylcarbamimidoyl)phenyl)oxazol-4-yl)methyl)-5-chlorothiophene-2-carboxamide]	100 to 500 nM
CN(C)CCN(C)c1ccc(C2=NOC(CNC(=O)c3ccc(Cl)s3)C2)cc1 (stereo not drawn) [Example 238, 5-Chloro-thiophene-2-carboxylic acid (3-{4-[(2-dimethylamino-ethyl)-methyl-amino]-phenyl}-4,5-dihydro-isoxazol-5-ylmethyl)-amide]	100 to 500 nM
O=Cc1ccccc1-c1ccc(C2=NOC(CNC(=O)c3ccc(Cl)s3)C2)cc1 (stereo not drawn) [Example 183, 5-Chloro-thiophene-2-carboxylic acid [3-(2′-formyl-biphenyl-4-yl)-4,5-dihydro-isoxazol-5-ylmethyl]-amide]	≥ 500 nM

Other lines, results leading:

IC50	Structure (SMILES)
≤ 100 nM	N=C(c1ccc(C2=NOC(CNC(=O)c3ccc(Cl)s3)C2)c(N2CCCCCC2)c1)N1CCCCC1 (stereo not drawn) [Example 93, 5-Chloro-thiophene-2-carboxylic acid {3-[2-azepan-1-yl-4-(imino-piperidin-1-yl-methyl)-phenyl]-4,5-dihydro-isoxazol-5-ylmethyl}-amide]
≤ 100 nM	Cc1ccc(=O)n(-c2ccc(C3=NOC(CNC(=O)c4ccc(Cl)s4)C3)cc2)c1 (stereo not drawn) [Example 285, 5-Chloro-N-((3-(4-(5-methyl-2-oxopyridin-1(2H)-yl)phenyl)-4,5-dihydroisoxazol-5-yl)methyl)thiophene-2-carboxamide]
100 to 500 nM	CN1CCN=C1c1ccc(C2=NOC(CNC(=O)c3ccc(Cl)s3)C2)c(N(C)C)c1 (stereo not drawn) [Example 75, 5-Chloro-thiophene-2-carboxylic acid {3-[2-dimethylamino-4-(1-methyl-4,5-dihydro-1H-imidazol-2-yl)-phenyl]-4,5-dihydro-isoxazol-5-ylmethyl}-amide]
≤ 100 nM	CC(C)Oc1cc(C(=N)N2CCCC2)ccc1-c1cc(CNC(=O)c2ccc(Cl)s2)on1 [Example 128, 5-Chloro-thiophene-2-carboxylic acid {3-[4-(imino-pyrrolidin-1-yl-methyl)-2-isopropoxy-phenyl]-isoxazol-5-ylmethyl}-amide]
≤ 100 nM	CSc1cc(C(=N)N2CCCC2)ccc1-c1cc(CNC(=O)c2ccc(Cl)s2)on1 [Example 142, 5-Chloro-thiophene-2-carboxylic acid {3-[4-(imino-pyrrolidin-1-yl-methyl)-2-methylsulfanyl-phenyl]-isoxazol-5-ylmethyl}-amide]
≤ 100 nM	O=Cc1ccccc1-c1ccc(-c2cc(CNC(=O)c3ccc(Cl)s3)on2)cc1 [Example 208, 5-Chloro-thiophene-2-carboxylic acid [3-(2′-formyl-biphenyl-4-yl)-isoxazol-5-ylmethyl]-amide]
≤ 100 nM	O=C(NCc1cc(-c2ccc(-c3ccncc3)cc2)no1)c1ccc(Cl)s1 [Example 193, 5-Chloro-thiophene-2-carboxylic acid [3-(4-pyridin-4-yl-phenyl)-isoxazol-5-ylmethyl]-amide]
≤ 100 nM	CC(C)Oc1cc(C(=N)N(C)C)ccc1C1=NOC(CNC(=O)c2ccc(Cl)s2)C1 (stereo not drawn) [Example 109, 5-Chloro-thiophene-2-carboxylic acid {3-[4-(N,N-dimethyl-carbamimidoyl)-2-isopropoxy-phenyl]-4,5-dihydro-isoxazol-5-ylmethyl}-amide]
≤ 100 nM	O=C(NCc1cc(-c2ccc(Nc3cccnc3)cc2)no1)c1ccc(Cl)s1 [Example 253, 5-Chloro-thiophene-2-carboxylic acid {3-[4-(pyridin-3-ylamino)-phenyl]-isoxazol-5-ylmethyl}-amide]
≤ 100 nM	CN1CCN=C1c1ccc(C2=NOC(CNC(=O)c3ccc(Cl)s3)C2)c(OC2CCCCC2)c1 (stereo not drawn) [Example 116, 5-Chloro-thiophene-2-carboxylic acid {3-[2-cyclohexyloxy-4-(1-methyl-4,5-dihydro-1H-imidazol-2-yl)-phenyl]-4,5-dihydro-isoxazol-5-ylmethyl}-amide]
≤ 100 nM	O=C(NCc1cn(-c2ccc(-n3ccccc3=O)nc2)nn1)c1ccc(Cl)s1 [Example 389, 5-Chloro-N-((1-(6-(2-oxopyridin-1(2H)-yl)pyridin-3-yl)-1H-1,2,3-triazol-4-yl)methyl)thiophene-2-carboxamide]
≤ 100 nM	CN1CCN=C1c1ccc(-n2cnc(CNC(=O)c3ccc(Cl)s3)c2)cc1 [Example 365, 5-Chloro-N-((1-(4-(1-methyl-4,5-dihydro-1H-imidazol-2-yl)phenyl)-1H-imidazol-4-yl)methyl)thiophene-2-carboxamide]
≤ 100 nM	N=C(c1ccc(C2=NOC(CNC(=O)c3ccc(Cl)s3)C2)c(OC2CCCCC2)c1)N1CCCC1 (stereo not drawn) [Example 117, 5-Chloro-thiophene-2-carboxylic acid {3-[2-cyclohexyloxy-4-(imino-pyrrolidin-1-yl-methyl)-phenyl]-4,5-dihydro-isoxazol-5-ylmethyl}-amide]
≤ 100 nM	CCOc1cc(C(=N)N(C)C)ccc1-c1cc(CNC(=O)c2ccc(Cl)s2)on1 [Example 122, 5-Chloro-thiophene-2-carboxylic acid {3-[4-(N,N-dimethyl-carbamimidoyl)-2-ethoxy-phenyl]-isoxazol-5-ylmethyl}-amide]
≤ 100 nM	O=C(NCc1cn(-c2ccc(-n3cccc(Cl)c3=O)cc2)nn1)c1ccc(Cl)s1 [Example 292, 5-Chloro-N-((1-(4-(3-chloro-2-oxopyridin-1(2H)-yl)phenyl)-1H-1,2,3-triazol-4-yl)methyl)thiophene-2-carboxamide]
